Measured values reported in ChEMBL document CHEMBL1154283, “Chrotacumines A-D, chromone alkaloids from Dysoxylum acutangulum” (J Nat Prod, 2009).

Legend:
Type in all cases: functional, cell-based
HL-60 = test: Cytotoxicity against human HL60 cells after 48 hrs by MTT assay; settings: HL-60, 48 h
A549 = test: Cytotoxicity against human A549 cells after 48 hrs by MTT assay; settings: A549, 48 h
MCF7 = test: Cytotoxicity against human MCF7 cells after 48 hrs by MTT assay; settings: MCF7, 48 h
NCI-H226 = test: Cytotoxicity against human NCI-H226 cells after 48 hrs by MTT assay; settings: NCI-H226, 48 h
HCT-116 = test: Cytotoxicity against human HCT116 cells after 48 hrs by MTT assay; settings: HCT-116, 48 h

Row | SMILES | IC50 (HL-60) | IC50 (A549) | IC50 (MCF7) | IC50 (NCI-H226) | IC50 (HCT-116)
1 | Cc1cc(=O)c2c(O)cc3c(c2o1)[C@@H]1C[C@H](O3)N(C)C[C@H]1OC(=O)c1ccccc1 [CHROTACUMINE A] | > 10 µM |  |  |  | 
2 | COc1cc(C(=O)O[C@@H]2CN(C)CC[C@@H]2c2c(O)cc(O)c3c(=O)cc(C)oc23)cc(OC)c1OC [CHROTACUMINE C] | > 10 µM |  |  |  | 
3 | C/C=C(\C)C(=O)O[C@@H]1CN(C)CC[C@@H]1c1c(O)cc(O)c2c(=O)cc(C)oc12 [CHROTACUMINE B] | > 10 µM |  |  |  | 
4 | Cc1cc(=O)c2c(O)cc(O)c([C@H]3CCN(C)C[C@H]3O)c2o1 [ROHITUKINE] | 7.5 µM | > 10 µM | > 10 µM | > 10 µM | 8.8 µM
5 | COc1ccc(C(=O)O[C@@H]2CN(C)CC[C@@H]2c2c(O)cc(O)c3c(=O)cc(C)oc23)cc1OC [CHROTACUMINE D] | > 10 µM |  |  |  | 
